Measured values reported in PubChem BioAssay AID248 (DTP/NCI, 2004).
Values joined by “and” are separate entries in the source; they are usually repeats but may differ in a detail not shown here. Identical values can stand only once. Toxic doses and inconclusive results are not listed.

Tested on: L1210 leukemia ip in BDF1 mice, survival T/C
Assay: NCI In Vivo Anticancer Drug Screen. Data for tumor model L1210 Leukemia (intraperitoneal) in B6D2F1 (BDF1) mice
Conditions: higher = longer survival
Summary of the method: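 Value reflects the ratio of survival in compound-treated mice to survival in vehicle-treated controls, with both groups carrying the same transplanted tumor.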

[1] = endpoint: mean survival time, dose: 100.0 mg/kg/injection, schedule: Q01DX009 (ip), vehicle: Klucel (hydroxypropylcellulose) (HPC)
[2] = endpoint: mean survival time, dose: 200.0 mg/kg/injection, schedule: Q01DX009 (ip), vehicle: Klucel (hydroxypropylcellulose) (HPC)
[3] = endpoint: mean survival time, dose: 100.0 mg/kg/injection, schedule: Q04DX003 (ip), vehicle: Klucel (hydroxypropylcellulose) (HPC)
[4] = endpoint: mean survival time, dose: 200.0 mg/kg/injection, schedule: Q04DX003 (ip), vehicle: Klucel (hydroxypropylcellulose) (HPC)
[5] = endpoint: mean survival time, dose: 400.0 mg/kg/injection, schedule: Q04DX003 (ip), vehicle: Klucel (hydroxypropylcellulose) (HPC)
[6] = endpoint: mean survival time, dose: 100.0 mg/kg/injection, schedule: Q01DX001 (ip), vehicle: saline
[7] = endpoint: mean survival time, dose: 200.0 mg/kg/injection, schedule: Q01DX001 (ip), vehicle: saline
[8] = endpoint: mean survival time, dose: 400.0 mg/kg/injection, schedule: Q01DX001 (ip), vehicle: saline

For `O=C(O)c1ccccc1Nc1ccccc1[N+](=O)[O-]`, the T/C (endpoint: mean survival time, dose: 100.0 mg/kg/injection, schedule: Q01DX005 (ip), vehicle: Klucel (hydroxypropylcellulose) (HPC)) was 90 % of control, the T/C [1] was 87 % of control and the T/C (endpoint: mean survival time, dose: 100.0 mg/kg/injection, schedule: Q04DX002 (ip), vehicle: Klucel (hydroxypropylcellulose) (HPC)) was 93 % of control. The T/C (endpoint: mean survival time, dose: 200.0 mg/kg/injection, schedule: Q01DX005 (ip), vehicle: Klucel (hydroxypropylcellulose) (HPC)) was 94 % of control, the T/C [2] was 102 % of control and the T/C (endpoint: mean survival time, dose: 200.0 mg/kg/injection, schedule: Q04DX002 (ip), vehicle: Klucel (hydroxypropylcellulose) (HPC)) was 100 % of control. The T/C (endpoint: mean survival time, dose: 400.0 mg/kg/injection, schedule: Q01DX005 (ip), vehicle: Klucel (hydroxypropylcellulose) (HPC)) was 105 % of control, the T/C (endpoint: mean survival time, dose: 400.0 mg/kg/injection, schedule: Q01DX009 (ip), vehicle: Klucel (hydroxypropylcellulose) (HPC)) was 94 % of control and the T/C (endpoint: mean survival time, dose: 400.0 mg/kg/injection, schedule: Q04DX002 (ip), vehicle: Klucel (hydroxypropylcellulose) (HPC)) was 96 % of control.
`CCOC(=O)c1cnc(SC)nc1Nc1ccc(F)cc1` was tested, and the T/C [3] was 88 % of control, the T/C [4] was 100 % of control and the T/C [5] was 95 % of control.
`C1=C(c2ccccc2)CC2CCCC1N2Cc1ccccc1` (stereo unspecified) was tested, and the T/C (endpoint: mean survival time, dose: 12.5 mg/kg/injection, schedule: Q04DX003 (ip), vehicle: Klucel (hydroxypropylcellulose) (HPC)) was 102 % of control, the T/C (endpoint: mean survival time, dose: 25.0 mg/kg/injection, schedule: Q04DX003 (ip), vehicle: Klucel (hydroxypropylcellulose) (HPC)) was 102 % of control and the T/C (endpoint: mean survival time, dose: 50.0 mg/kg/injection, schedule: Q04DX003 (ip), vehicle: Klucel (hydroxypropylcellulose) (HPC)) was 94 % of control.
With `O=C(Nc1ccc([N+](=O)[O-])cc1)c1cc(N2CCCC2)ccn1` the T/C [6] was 100 % of control, the T/C [7] was 96 % of control and the T/C [8] was 100 % of control.
For `CC(C)CNC(=O)Cc1ccc(N(CCCl)CCCl)cc1`, the T/C [3] was 108 % of control, the T/C [4] was 108 % of control and the T/C [5] was 112 % of control.
In the case of `O=[N+]([O-])c1ccc2ncccc2c1`, the T/C [3] is reported as 106 % of control and the T/C [4] is reported as 101 % of control.
In the case of `COc1ccc(NC(=O)CCc2ccc(N3C(N)=NC(N)=NC3(C)C)cc2)cc1S(=O)(=O)F`, the T/C (endpoint: mean survival time, dose: 50.0 mg/kg/injection, schedule: Q01DX001 (ip), vehicle: Klucel (hydroxypropylcellulose) (HPC)) is reported as 95 % of control, the T/C (endpoint: mean survival time, dose: 100.0 mg/kg/injection, schedule: Q01DX001 (ip), vehicle: Klucel (hydroxypropylcellulose) (HPC)) is reported as 106 % of control and the T/C (endpoint: mean survival time, dose: 200.0 mg/kg/injection, schedule: Q01DX001 (ip), vehicle: Klucel (hydroxypropylcellulose) (HPC)) is reported as 98 % of control.
In the case of `CC1COP(Oc2ccccc2)O1` (stereo unspecified), the T/C [6] is reported as 113 % of control, the T/C [7] is reported as 115 % of control and the T/C [8] is reported as 96 % of control.
In the case of `O=C[C@@H](CO)O[C@H](C=O)n1cnc2c(=O)[nH]cnc21`, the T/C (endpoint: mean survival time, dose: 35.0 mg/kg/injection, schedule: Q01DX009 (ip), vehicle: saline) is reported as 116 % of control, the T/C (endpoint: mean survival time, dose: 35.0 mg/kg/injection, schedule: Q01DX009 (ip), vehicle: water) is reported as 122 % of control and the T/C (endpoint: mean survival time, dose: 35.0 mg/kg/injection, schedule: Q01DX Z (ip), vehicle: water) is reported as 120 % of control. The T/C (endpoint: mean survival time, dose: 70.0 mg/kg/injection, schedule: Q01DX009 (ip), vehicle: saline) was 188 % of control, the T/C (endpoint: mean survival time, dose: 70.0 mg/kg/injection, schedule: Q01DX009 (ip), vehicle: water) was 155 % of control and the T/C (endpoint: mean survival time, dose: 79.0 mg/kg/injection, schedule: Q01DX009 (oral), vehicle: saline) was 93 % of control. For the same compound, the T/C (endpoint: mean survival time, dose: 80.0 mg/kg/injection, schedule: Q01DX009 (ip), vehicle: saline) was 167 % of control, the T/C (endpoint: mean survival time, dose: 98.0 mg/kg/injection, schedule: Q01DX006 (ip), vehicle: saline) was 219 % of control and the T/C (endpoint: mean survival time, dose: 98.0 mg/kg/injection, schedule: Q ##X009 (ip), vehicle: saline) was 227 % of control. The T/C (endpoint: mean survival time, dose: 98.0 mg/kg/injection, schedule: Q## X Z (ip), vehicle: saline) was 227 % of control, the T/C (endpoint: mean survival time, dose: 119.0 mg/kg/injection, schedule: Q01DX009 (oral), vehicle: saline) was 110 % of control and the T/C (endpoint: mean survival time, dose: 120.0 mg/kg/injection, schedule: Q01DX009 (ip), vehicle: saline) was 167 % of control and 188 % of control. For the same compound, the T/C (endpoint: mean survival time, dose: 125.0 mg/kg/injection, schedule: Q01DX009 (ip), vehicle: saline with Tween-80) was 161 % of control, the T/C (endpoint: mean survival time, dose: 140.0 mg/kg/injection, schedule: Q01DX006 (ip), vehicle: saline) was 205 % of control and the T/C (endpoint: mean survival time, dose: 140.0 mg/kg/injection, schedule: Q01DX009 (ip), vehicle: saline) was 176 % of control and 184 % of control. For the same compound, the T/C (endpoint: mean survival time, dose: 140.0 mg/kg/injection, schedule: Q01DX009 (ip), vehicle: water) was 250 % of control, the T/C (endpoint: mean survival time, dose: 140.0 mg/kg/injection, schedule: Q01DX Z (ip), vehicle: water) was 253 % of control and the T/C (endpoint: mean survival time, dose: 140.0 mg/kg/injection, schedule: Q ##X009 (ip), vehicle: saline) was 246 % of control. For the same compound, the T/C (endpoint: mean survival time, dose: 140.0 mg/kg/injection, schedule: Q## X Z (ip), vehicle: saline) was 246 % of control, the T/C (endpoint: mean survival time, dose: 150.0 mg/kg/injection, schedule: Q01DX009 (ip), vehicle: saline with Tween-80) was 206 % of control and the T/C (endpoint: mean survival time, dose: 175.0 mg/kg/injection, schedule: Q01DX009 (ip), vehicle: saline with Tween-80) was 215 % of control. For the same compound, the T/C (endpoint: mean survival time, dose: 178.0 mg/kg/injection, schedule: Q01DX009 (oral), vehicle: saline) was 102 % of control, the T/C (endpoint: mean survival time, dose: 180.0 mg/kg/injection, schedule: Q01DX009 (ip), vehicle: saline) was 227 % of control and 251 % of control and the T/C (endpoint: mean survival time, dose: 200.0 mg/kg/injection, schedule: Q01DX009 (ip), vehicle: saline with Tween-80) was 439 % of control. The T/C (endpoint: mean survival time, dose: 200.0 mg/kg/injection, schedule: Q04DX003 (ip), vehicle: saline with Tween-80) was 165 % of control, the T/C (endpoint: mean survival time, dose: 225.0 mg/kg/injection, schedule: Q01DX009 (ip), vehicle: saline with Tween-80) was 427 % of control and the T/C (endpoint: mean survival time, dose: 250.0 mg/kg/injection, schedule: Q04DX003 (ip), vehicle: saline with Tween-80) was 172 % of control. The T/C (endpoint: mean survival time, dose: 267.0 mg/kg/injection, schedule: Q01DX009 (oral), vehicle: saline) was 110 % of control, the T/C (endpoint: mean survival time, dose: 270.0 mg/kg/injection, schedule: Q01DX009 (ip), vehicle: saline) was 182 % of control and the T/C (endpoint: mean survival time, dose: 280.0 mg/kg/injection, schedule: Q01DX009 (ip), vehicle: saline) was 89 % of control. For the same compound, the T/C (endpoint: mean survival time, dose: 300.0 mg/kg/injection, schedule: Q04DX003 (ip), vehicle: saline with Tween-80) was 245 % of control, the T/C (endpoint: mean survival time, dose: 350.0 mg/kg/injection, schedule: Q04DX003 (ip), vehicle: saline with Tween-80) was 318 % of control and the T/C (endpoint: mean survival time, dose: 400.0 mg/kg/injection, schedule: Q01DX009 (oral), vehicle: saline) was 102 % of control. For the same compound, the T/C (endpoint: mean survival time, dose: 400.0 mg/kg/injection, schedule: Q04DX003 (ip), vehicle: saline with Tween-80) was 401 % of control, the T/C (endpoint: mean survival time, dose: 600.0 mg/kg/injection, schedule: Q01DX009 (oral), vehicle: saline) was 104 % of control and the T/C (endpoint: median survival time, dose: 108.0 mg/kg/injection, schedule: Q01DX009 (ip), vehicle: water) was 166 % of control. For the same compound, the T/C (endpoint: median survival time, dose: 180.0 mg/kg/injection, schedule: Q01DX009 (ip), vehicle: water) was 461 % of control.
In the case of `CCOC(=O)/C(C#N)=C\c1ccccc1Cl`, the T/C (endpoint: mean survival time, dose: 50.0 mg/kg/injection, schedule: Q01DX009 (ip), vehicle: Klucel (hydroxypropylcellulose) (HPC)) is reported as 98 % of control, the T/C [1] is reported as 95 % of control and the T/C [3] is reported as 91 % of control. The T/C [2] was 100 % of control and the T/C [4] was 99 % of control.
